Patent publication US4540702A, “2-Substituted-4-thiazolidones” (Kureha Kagaku Kogyo Kabushiki Kaisha, priority 1979, dated 1985)

Tests used:
Format in all cases: in vivo
[1] = Effect against peptic ulcer formed by ligating the pylorus (Shay et al.); conditions: pylorus-ligated rat, 100 mg/kg intraperitoneal; for inhibition in vivo at 100 mg/kg: Rattus norvegicus, ip, 15 h, vs control group, read-out: Rate of suppression of peptic ulcer; for Coefficient of peptic ulcer: 15 hours
Protocol: Each male rat of a group consisting of 10 animals, weighing 180 to 200 g, after 48 hours' fasting, was subjected to ligature at its pyloric part under the anesthesia by ether following the method of Shay et al. (refer to Gastroenterology, Vol. 5, 43, 1945). Just after the ligature, each of the present compounds suspended in an aqueous physiological saline solution was injected into each rat's abdominal cavity at a dose rate of 100 mg/kg body weight, the control group being injected with an aqueous physiological saline solution. After keeping the rats at a state of fasting without taking water for 15 hours, the rats were sacrificed by ether and their stomachs were removed to examine under a microscope for autopsy. The longitudinal and horizontal lengths of the thus formed peptic ulcer were determined and expressed by the product (mm^2), and the total sum of the products was represented as the coefficient of ulcer.
The rate of suppression of peptic ulcer (%) is expressed by the ratio of the difference between the coefficient of peptic ulcer of control group and the coefficient of peptic ulcer of the treated group to the coefficient of peptic ulcer of control group multiplied by 100.

[2] = Effect on duodenal peptic ulcer induced by acetic acid (Okabe et al.); conditions: oral 100 mg/kg/day, three times a day for 10 days; for inhibition in vivo at 100 mg/kg/day: Rattus norvegicus, po, 240 h, vs control group, read-out: Rate of curation of peptic ulcer; for Coefficient of peptic ulcer: acetic acid duodenal ulcer rat
Text: The inventors of the present invention, taking into account of these situations, added to the method of evaluation the effect of accelerating the curation of the peptic ulcer by orally administering the present compound and a commercialized anti-peptic medicine, respectively to rats to which duodenal peptic ulcer due to acetic acid (refer to Okabe, 1971) considered to be most closely resembling to human peptic ulcer has been artificially formed.
Following the method of Okabe et al. (refer to Amer. J. Dig. Dis., Vol. 16, 277, 1971), each male rat weighing 240 to 260 g of a group consisting of 15 animals was subjected to laparotomy under ether-anesthesia and a metal circular frame was put on a part of the serosa at the distance of 5 to 7 mm from the duodenal pylorus and 0.06 ml of glacial acetic acid was poured on the circular part of the frame. After 30 seconds, the acetic liquid was removed and the frame was also removed. Each of the present compounds suspended in an aqueous 0.5% CMC solution was orally administered to the rat from after 3 days of the operation three times a day for consecutive 10 days, rats of control group being given the aqueous 0.5% CMC solution. After ending the administration, the rats were sacrificed by ether, their duodenum being removed to be examined under a microscope for autopsy. The longitudinal and horizontal lengths of the thus formed ulcer were determined and the product of the lengths expressed by mm^2 was recorded as the coefficient of peptic ulcer. The rate of curation of peptic ulcer, in this Example is calculated by the same manner as the rate of suppression of peptic ulcer in Example 5.

[3] = Suppressive action on gastric secretion (pyloric ligature); conditions: rat, intraduodenal 200 mg/kg, 4 hours; for Rate of suppression on gastric secretion: vs control
Protocol: Groups of male rats (a group consisted of 10 animals) were subjected to pyloric ligature under etherization after fasting for 24 hours, and each of the compounds to be tested was administered intraduodenally as an emulsion or suspension in an aqueous 0.5% by weight solution of sodium carboxymethylcellulose just after ligation. After 4 hours of the laparotomy, the stomach of each rat was extirpated under etherization, and the amount of gastric juice in the stomach was measured.

| SMILES | inhibition in vivo at 100 mg/kg [1] | Coefficient of peptic ulcer [1] | inhibition in vivo at 100 mg/kg/day [2] | Coefficient of peptic ulcer [2] | Amount of gastric juice [3] | Rate of suppression on gastric secretion [3] |
| --- | --- | --- | --- | --- | --- | --- |
| COc1cccc(C2NC(=O)CS2)c1OC (stereo not drawn) [2-(2,3-dimethoxyphenyl)-4-thiazolidone] | 82.9% | 8.8 mm^2 | 82.7% | 1.3 mm^2 | 3.7 mL | 44.7% |
| COc1ccc(OC)c(C2NC(=O)CS2)c1 (stereo not drawn) [2-(2,5-dimethoxyphenyl)-4-thiazolidone] | 79% | 9.4 mm^2 | 65.3% | 2.6 mm^2 | 3.5 mL | 32.8% |
| O=C1CSC(c2ccccc2C(=O)O)N1 (stereo not drawn) [2-(2-carboxyphenyl)-4-thiazolidone] | 79.8% | 8.5 mm^2 | 60% | 3.0 mm^2 | – | – |
| CCOc1ccccc1C1NC(=O)CS1 (stereo not drawn) [2-(2-ethoxyphenyl)-4-thiazolidone] | 81.9% | 7.6 mm^2 | 76% | 1.8 mm^2 | 4.3 mL | 35.8% |
| COc1ccccc1C1NC(=O)CS1 (stereo not drawn) [2-(2-methoxyphenyl)-4-thiazolidone] | 87.4% | 5.3 mm^2 | 80% | 1.5 mm^2 | 4.0 mL | 40.2% |
| COc1cc(C2NC(=O)CS2)cc(OC)c1OC (stereo not drawn) [2-(3,4,5-trimethoxyphenyl)-4-thiazolidone] | 85.8% | 6.5 mm^2 | 82.1% | 1.4 mm^2 | – | – |
| COc1ccc(C2NC(=O)CS2)cc1OC (stereo not drawn) [2-(3,4-dimethoxyphenyl)-4-thiazolidone] | 91.9% | 3.4 mm^2 | 80% | 1.5 mm^2 | 3.3 mL | 50.7% |
| COc1cc(C2NC(=O)CS2)cc(OC)c1O (stereo not drawn) [2-(3,5-dimethoxy-4-hydroxyphenyl)-4-thiazolidone] | 81.9% | 7.6 mm^2 | 88% | 2.4 mm^2 | – | – |
| COc1cccc(C2NC(=O)CS2)c1 (stereo not drawn) [2-(3-methoxyphenyl)-4-thiazolidone] | 86% | 5.5 mm^2 | 73.3% | 2.0 mm^2 | – | – |
| CN(C)c1ccc(C2NC(=O)CS2)cc1 (stereo not drawn) [2-(4-dimethylaminophenyl)-4-thiazolidone] | 75% | 10.5 mm^2 | 88% | 2.4 mm^2 | – | – |
| COc1ccc(C2NC(=O)CS2)cc1 (stereo not drawn) [2-(4-methoxyphenyl)-4-thiazolidone] | 68.1% | 13.4 mm^2 | 58.7% | 3.1 mm^2 | – | – |
| CC(C)=CCCC(C)=CCCC(C)=CCCC(=O)OCC=C(C)CCC=C(C)C [Gefarnate, 3,7dimethyl-2,6-octadienyl 5,9,13trimethyl-4,8,12-tetradecatrienoate, reference compound] | ~11% | 37.4 mm^2 | 23% | 5.8 mm^2 | 6.5 mL | 2.9% |
